Read-outs that look alike come from different tables or passages of the source.
Assays:
[1] = tested on: p52 (NF-kB2) nuclear translocation in HeLa cells; assay: p52 nuclear translocation assay (non-classical NF-kB signaling), high content imaging; type: cell-based; conditions: 100 ng/mL anti-lymphotoxin beta receptor antibody for 5 hours, read-out: p52 HeLa Transloc Assay (IC50)
Description: (§1) (2) A second set of cell assay are used to define the selectivity of NIK inhibitors toward inhibition of classical vs. non-classical NF-kB signaling and rely on quantification of the nuclear translocation of p52 (NF-kB2) and REL-A (p65) using high content cellular imaging. For the p52 (non-classical NF-kB signaling) nuclear translocation assay, HeLa cells are treated with different concentrations of compounds (0.2% DMSO final) in medium containing 10% fetal bovine serum and then stimulated with 100 ng/mL, of an anti-lymphotoxin beta receptor antibody (R&D Systems) for 5 hours. In the REL-A nuclear translocation assay, HeLa cells are incubated with compounds (0.2% DMSO final) for 4.5 hours in medium containing 10% fetal bovine serum before stimulating them with 10 ng/mL tumor necrosis factor (TNF)-α (R&D Systems) for 30 minutes. Cells are fixed with 4% paraformaldehyde, permeabilized by adding 0.1% Triton X-100 in phosphate buffered saline, and then are incubated with either 2 ug/mL anti-p52 antibody (Millipore) or 400 ng/mL anti-REL-A (p65) antibody (Santa Cruz Biotechnology). Finally, the cells are incubated with an Alexa488-labeled secondary antibody (Invitrogen) and DRAQ5 DNA stain (Biostatus). Imaging is carried out using an Opera reader (Perkin Elmer) and data are analyzed with the aid of Acapella software (Perkin Elmer). The p52 or REL-A translocation into the nucleus is quantified by the ratio of the nuclear to cytoplasmic signal intensity. […] The compounds in listed in Table 1 have the corresponding inhibitory value (IC50 in micromolar) for NIK p52 Translocation Assay as set forth in Table 2.

[2] = tested on: REL-A (p65) nuclear translocation in HeLa cells; assay: REL-A nuclear translocation assay (classical NF-kB signaling), high content imaging; type: cell-based; conditions: Homo sapiens, compounds 4.5 hours, then 10 ng/mL TNF-α for 30 minutes, read-out: REL-A HeLa Transloc Assay (IC50)
Description: as §1
The compounds in listed in Table 1 has the corresponding inhibitory value (IC50 in micromolar) for NIK RelA Translocation Assay as set forth in Table 2.

[3] = biological target: nuclear factor-kappa B (NF-kB)-inducing kinase (NIK) (Homo sapiens (Human), UniProt Q99558); assay: NIK Enzyme Inhibition Assay (Transcreener ADP fluorescence polarization); type: biochemical; conditions: read-out: NIK ADP-FP (Ki uM)
nuclear factor-kappa B (NF-kB)-inducing kinase (NIK), sequence (Q99558 whole entry): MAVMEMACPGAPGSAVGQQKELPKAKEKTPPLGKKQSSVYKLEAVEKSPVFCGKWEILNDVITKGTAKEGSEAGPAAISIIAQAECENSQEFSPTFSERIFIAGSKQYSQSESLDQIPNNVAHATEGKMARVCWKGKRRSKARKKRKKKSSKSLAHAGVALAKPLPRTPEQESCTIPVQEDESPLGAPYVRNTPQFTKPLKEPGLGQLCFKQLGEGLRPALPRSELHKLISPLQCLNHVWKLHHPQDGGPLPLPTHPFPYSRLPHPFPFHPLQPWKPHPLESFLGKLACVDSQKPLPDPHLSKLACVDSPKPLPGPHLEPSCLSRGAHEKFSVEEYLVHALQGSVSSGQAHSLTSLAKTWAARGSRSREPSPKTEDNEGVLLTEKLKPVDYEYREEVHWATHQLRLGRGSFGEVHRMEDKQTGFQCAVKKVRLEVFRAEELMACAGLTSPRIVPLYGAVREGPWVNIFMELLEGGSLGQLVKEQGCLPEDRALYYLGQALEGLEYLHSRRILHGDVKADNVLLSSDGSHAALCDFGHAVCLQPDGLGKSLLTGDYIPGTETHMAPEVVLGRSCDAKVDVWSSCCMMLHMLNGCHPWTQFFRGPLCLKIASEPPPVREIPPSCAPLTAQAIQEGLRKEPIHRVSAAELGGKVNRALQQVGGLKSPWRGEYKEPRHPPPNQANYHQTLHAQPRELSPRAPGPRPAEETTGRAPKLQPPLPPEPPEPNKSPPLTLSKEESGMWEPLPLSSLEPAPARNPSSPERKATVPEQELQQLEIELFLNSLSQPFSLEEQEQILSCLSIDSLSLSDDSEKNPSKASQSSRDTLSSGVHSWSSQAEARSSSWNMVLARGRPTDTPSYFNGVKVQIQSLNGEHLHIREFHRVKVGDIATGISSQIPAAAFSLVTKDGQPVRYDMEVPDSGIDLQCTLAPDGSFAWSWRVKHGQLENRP
Outline: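 Fluorescence-polarization ADP detection (tracer displacement, 633 nm excitation) read after EDTA/Brij quench. Reaction: 0.2-1 nM insect-cell-derived NIK, 10 uM ATP, HEPES pH 7.2 with MgCl2 and DTT, 1% DMSO, 1-3.5 h with compounds.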

[4] = purified NIK 0.2-1 nM, 10 uM ATP, Morrison's quadratic equation

IC50 ([2]; HeLa) | Ki [3, 4] | Compound | IC50 ([1]; Homo sapiens, HeLa, 5 h) | also measured
> 20 µM |  | C[C@@H]1COc2ccc(C#C[C@]3(O)CCCN(C)C3=O)cc2-c2nc(C(N)=O)sc21 [Example 493, 10-[2-[(3R)-3-hydroxy-1-methyl-2-oxo-pyrrolidin-3-yl]ethynyl]-N3-methyl-5,6,7,12-tetrahydro-5,7-methanobenzo[c]imidazo[1,2-a]azepine-2,3-dicarboxamide] |  | 
20 µM |  | CN1CC[C@@](O)(C#Cc2ccc3c(c2)-c2nc(C(N)=O)sc2CCO3)C1=O [Example 276] | 94.6 nM | 
> 20 µM |  | Cc1nc2ccccc2n1Cc1c(C(N)=O)nc2n1CCOc1ccc(C#C[C@]3(O)CCN(C)C3=O)cc1-2 [Example 416, 9-fluoro-10-[(3R)-3-hydroxy-3-(5-methylisoxazol-3-yl)but-1-ynyl]-3-[1-(2-hydroxy-2-methyl-propyl)pyrazol-4-yl]-5,6,7,12-tetrahydro-5,7-methanobenzo[c]imidazo[1,2-a]azepine-2-carboxamide] | 3200 nM | 
> 20 µM |  | CNC(=O)c1c(C(N)=O)nc2n1C1CC(C1)c1ccc(C#CC3(O)CCCC3)cc1-2 (racemic) | 709 nM | 
> 20 µM |  | CN1CC[C@@](O)(C#Cc2ccc3c(c2)-n2nc(C(N)=O)cc2C2(CC2)CO3)C1=O [Example 460] | 252 nM | 
> 20 µM |  | CN1CC[C@@](O)(C#Cc2ccc3c(c2)-n2nc(C(N)=O)cc2[C@H](F)CO3)C1=O |  | 
> 20 µM |  | Cc1nc([C@](C)(O)C#Cc2ccc3c(c2)-c2nc(C(N)=O)sc2[C@](C)(F)CO3)no1 [Example 469] |  | 
> 20 µM |  | CN1CC[C@@](O)(C#Cc2ccc3c(c2)-c2nc(C(N)=O)sc2[C@](O)(CF)CO3)C1=O [Example 465] |  | 
> 20 µM |  | Cc1nc([C@](C)(O)C#Cc2ccc3c(c2)-c2nc(C(N)=O)sc2[C@@](C)(F)CO3)no1 |  | 
> 20 µM |  | C[C@H]1COc2ccc(C#C[C@]3(O)CCCN(C)C3=O)cc2-c2nc(C(N)=O)sc21 (racemic) [Example 501] |  | 
 | > 5 µM | CC(O)(C#Cc1cc2c(cc1F)OCCn1cc(C(N)=O)nc1-2)c1ccncn1 (stereo not shown) |  | 
 | > 5 µM | Cc1cccnc1C(C)(O)C#Cc1cc2c(cc1F)OCCn1cc(C(N)=O)nc1-2 (racemic) [Example 62] |  | 
 | 3.5 µM | CC(O)(C#Cc1cc2c(cc1F)OCCn1cc(C(N)=O)nc1-2)c1ccc(F)cn1 (stereo not shown) [Example 101, 8-fluoro-9-[3-(5-fluoro-pyridin-2-yl)-3-hydroxy-but-1-ynyl]-4,5-dihydro-6-oxa-1,3a-diaza-benzo[e]azulene-2-carboxy-lic acid amide] |  | 
 | > 5 µM | NC(=O)c1cn2c(n1)-c1cc(C#CC3(O)CCNC3)ccc1OCC2 (stereo not shown) [Example 29, 9-(3-hydroxy-pyrrolidin-3-ylethynyl)-4,5-dihydro-6-oxa-1,3a-diaza-benzo[e]azu-lene-2-carboxylic acid amide] |  | 

Second part, the compound before the results:

Compound | IC50 ([2]; HeLa) | Ki [3, 4] | IC50 ([1]; Homo sapiens, HeLa, 5 h) | also measured
Cc1cc([C@](C)(O)C#Cc2ccc3c(c2)-c2nc(C(N)=O)c(Cn4c(C)nc5ccccc54)n2CCO3)no1 [Example 415, 9-fluoro-10-(3-hydroxy-3-methyl-but-1-ynyl)-3-[(2-methoxyethylamino)methyl]-5,6,7,12-tetrahydro-5,7-methanobenzo[c]imidazo[1,2-a]azepine-2-carboxamide] | > 20 µM |  | 979 nM | 
CNC(=O)c1c(C(N)=O)nc2n1CCOc1cc(F)c(C#CC(C)(O)COC)cc1-2 (stereo not shown) [Example 108] |  |  |  | IC50 [2]: 20 µM
Cc1nc([C@](C)(O)C#Cc2ccc3c(c2)-c2nc(C(N)=O)sc2[C@@H](F)CO3)no1 | > 20 µM |  |  | 
CNC(=O)c1c(C(N)=O)nc2n1C1CC(C1)c1cc(F)c(C#C[C@@](C)(O)c3cc(C)on3)cc1-2 |  | 0.008 µM | 683 nM | 
NC(=O)c1nc2n(c1C1CC1)C1CC(C1)c1cc(F)c(C#C[C@]3(O)CCNC3=O)cc1-2 [Example 338, 3-cyclopropyl-9-fluoro-10-[2-[(3R)-3-hy-droxy-2-oxo-pyrrolidin-3-yl]ethynyl]-5,6,7,12-tetrahydro-5,7-methano-benzo[c]imidazo[1,2-a]azepine-2-carboxamide] | > 20 µM |  | 3000 nM | 
CC(C)(O)C#Cc1cc2c(cc1F)C1CC(C1)c1c-2nc(C(N)=O)n1C(F)F [Example 411, 9-fluoro-10-(3-hydroxy-3-methyl-but-1-ynyl)-3-(pyrrolidin-1-ylmethyl)-5,6,7,12-tetrahydro-5,7-methanobenzo[c]imidazo[1,2-a]azepine-2-carboxamide] | 20 µM |  | 73.2 nM | 
Cc1nc([C@](C)(O)C#Cc2cc3c(cc2F)OC[C@H](N(C)C)c2sc(C(N)=O)nc2-3)no1 [Example 258, (S)-4-(dimethylamino)-8-fluoro-9-[3-(R)-hydroxy-3-(5-methyl-1,2,4-oxadiazol-3-yl)but-1-ynyl]-4,5-dihydro-[1]benzoxe-pino[5,4-d]thiazole-2-carboxamide] | > 20 µM |  | 2900 nM | IC50 [1]: 2000 nM
CC(C)(O)C#Cc1ccc2c(c1)-c1nc(C(N)=O)c(-c3nnc(C4CC4)s3)n1C1CC2C1 [Example 390, 9-fluoro-10-(3-hydroxy-3-methyl-but-1-ynyl)-3-(trifluoromethyl)-5,6,7,12-tetrahydro-5,7-methanobenzo[c]imidazo[1,2-a]azepine-2-carboxamide] | 9.5 µM |  | 1500 nM | 
CC(C)(O)C#Cc1cc2c(cc1F)OCCn1c-2nc(C(N)=O)c1-c1nc(C2CC2)n[nH]1 |  | 0.002 µM | 112 nM | 
Cc1cc([C@](C)(O)C#Cc2cc3c(cc2F)OC[C@@H](N(C)C)c2sc(C(N)=O)nc2-3)no1 [Example 254] | 20 µM |  |  | 
Cc1cc([C@@](C)(O)C#Cc2ccc3c(c2)-n2nc(C(N)=O)cc2[C@H](C)CO3)no1 (racemic) [Example 513] | > 20 µM |  |  | 
Cc1cc([C@](C)(O)C#Cc2cc3c(cc2F)OC[C@H](N(C)C)c2sc(C(N)=O)nc2-3)no1 (single isomer, unassigned) [Example 257] | 20 µM |  |  | 
Cc1nc([C@](C)(O)C#Cc2ccc3c(c2)-c2nc(C(N)=O)sc2[C@@H](C)CO3)no1 (racemic) | > 20 µM |  |  | 
Cc1cc([C@](C)(O)C#Cc2ccc3c(c2)-c2nc(C(N)=O)c([C@H](O)c4ccnn4C)n2C2CC3C2)no1 |  |  | 1200 nM | 
Cc1cc([C@](C)(O)C#Cc2ccc3c(c2)-c2nc(C(N)=O)c([C@@H](O)c4ccnn4C)n2C2CC3C2)no1 [Example 359] |  |  | 1200 nM | 
Cc1nc([C@](C)(O)C#Cc2cc3c(cc2F)C2CC(C2)n2cc(C(N)=O)nc2-3)no1 |  | 0.003 µM | 792 nM | 
CC(O)(C#Cc1cc2c(cc1F)C1CC(C1)n1cc(C(N)=O)nc1-2)CF (racemic) |  | 0.0031 µM | 424 nM | 
Cc1nc([C@](C)(O)C#Cc2ccc3c(c2)-c2nc(C(N)=O)sc2[C@H](F)CO3)no1 [Example 464] | > 20 µM |  |  | 
Cc1cc([C@@](C)(O)C#Cc2ccc3c(c2)-n2nc(C(N)=O)cc2[C@@H](C)CO3)no1 [Example 519] | > 20 µM |  |  | 
CC(C)(O)C#Cc1cc2c(cc1F)OCCn1c-2nc(C(N)=O)c1C(O)c1cccc(C(F)(F)F)c1 (stereo not shown) |  | 0.019 µM | 344 nM | 
CNC(=O)c1c(C(N)=O)nc2n1CCOc1cc(F)c(C#CC(C)(O)CF)cc1-2 (stereo not shown) [Example 109] |  |  |  | IC50 ([1]; Homo sapiens): 272 nM
CC(O)(C#Cc1cc2c(cc1F)OCCn1cc(C(N)=O)nc1-2)c1nccs1 (stereo not shown) [Example 144] |  |  | 483 nM | 
CC(C)(O)C#Cc1cc2c(cc1F)OCCn1c-2nc(C(N)=O)c1C#N [Example 33, 3-cyano-8-fluoro-9-(3-hydroxy-3-methyl-but-1-ynyl)-4,5-dihydro-6-oxa-1,3a-diaza-benzo[e]azulene-2-carboxylic acid amide] |  | 0.172 µM |  | 
Cc1nnc([C@](C)(O)C#Cc2ccc3c(c2)-n2nc(C(N)=O)cc2C(C)CO3)o1 (stereo partly shown) [Example 497] |  | 0.039 µM |  | 
CN(C)Cc1c(C(N)=O)nc2n1C1CC(C1)c1cc(F)c(C#CC(C)(C)O)cc1-2 (racemic) |  | 0.6 µM |  | 
CC(O)(C#Cc1cc2c(cc1F)OCCn1cc(C(N)=O)nc1-2)c1cncnc1 (stereo not shown) [Example 18, 8-fluoro-9-(3-hydroxy-3-pyrimidin-5-yl-but-1-ynyl)-4,5-dihydro-6-oxa-1,3a-diaza-benzo[e]azulene-2-carboxylic acid amide] |  |  |  | Ki [3]: > 5 µM

Source: US9034866B2 (Genentech, Inc., priority 2012, dated 2015)
